From patent EP2763666B1 (priority 2011, dated 2013) come the findings set out here.

The test system of one data set is generalized demodicosis. The experiment in a line: Canine generalized demodicosis: IP versus milbemycin oxime. The note with it: fraction of cases. The class given is in vivo, dogs. Here is the method:
Twelve dogs diagnosed with generalized demodicosis were treated, 6 with IP and 6 with milbemycin oxime. Cases diagnosed before two years of age were classified as juvenile-onset (58.3%, 7 dogs) and those diagnosed after two years of age as adult-onset (41.6%, 5 dogs). […] As previous mentioned, in six dogs cured with milbemycin oxime, the drug was used for 1-6 months (mean 2.3 months) at a dosage of 0.5-1.6 mg kg-1 body weight (mean 0.75 mg kg-1). No significant difference in dosage or treatment time was seen between juvenile and adult cases. Six dogs cured with IP were treated at the same manner indicated as reported in Example 1, and 6). In group of IP treated dogs, not differences were observed between young and adult treated animals. […] Cases with severe pododemodicosis had less chance of a cure (2/3 not cured) by using M-O protocol, but not with IP protocol (2/2 cured).
Dogs: dogs of every age, breed or sex with generalized demodicosis were used in this study. All dogs. […] Dogs developing the disease at less than two years of age were classified as juvenile-onset generalized demodicosis. Dogs that developed disease at two years of age or older were classified as adult onset generalized demodicosis. […]
Follow-up: follow-up visits were scheduled once a month for clinical evaluation and skin scrapings. The scraping sites were recorded and sampled at each subsequent examination. […]

The next data set relates to canine blood monocytes. It counts as in vivo, dogs. The conditions noted are these: for Macrophages activity of killing: NO production / NBT reduction; for Macrophages activity of killing / Macrophages activity of binding: mean ± standard deviation; for Macrophages activity of binding: direct count of macrophages containing yeast cells.
The test system of data set [1] is L. infantum infected dogs. The class given is in vivo. The conditions noted are these: for A/G ratio / Serum albumin / Serum γ-globulin: mean ± standard deviation.
Data set [2] has as its system L. infantum infected dogs. It counts as in vivo. The note with it: for RT-PCR on lymph node FNA: mean ± standard deviation.
The test system of data set [3] is L. infantum infected dogs. The class given is in vivo. The note with it: for Antibody titre: mean ± standard deviation.
Data set [4] deals with L. infantum infected dogs. It counts as in vivo. The note with it: mean ± standard deviation.
Data set [5] concerns L. infantum infected dogs. It counts as in vivo. The conditions noted are these: mean ± standard deviation. This is another data set of the same source.
[6] abbreviates: T0 (beginning of therapy), baseline.

Read-outs that look alike come from different tables or passages of the source.

Turning to milbemycin oxime [M-O], the “cases with severe pododemodicosis not cured” value with generalized demodicosis is reported as 2/3.

With `Cc1ccc(-c2cc(C(F)(F)F)nn2-c2ccc(S(N)(=O)=O)cc2)cc1` [Celecoxib], where the note is “5 control parrots treated only with anti-COX2”, the “side effects: animals with chronic bleeding” value is on record as “two”. The “death with acute hemorrhagic event in the proventriculus, time from initiation of therapy” value (adult female African Grey parrot) is at most 7 days. For the same compound, for the setting “histology at T1 (six months) and T2 (one year of therapy)”, the “negativization of crop biopsies” value turned out to be 20%. The “renal side effect leading to discontinuation” value (in vivo) is “inducing renal failure”. This compound gave a parrots survived (of 5 parrots, 1.5 year later) of 1. This compound also returned a parrots died (of 5 parrots, during four months after the end of the therapy) of 4.

In the case of Meglumine antimoniate [Control group], the “Macrophages killing activity, levels of NO production / NBT reduction (trend)” value in the data set with canine blood monocytes (Figure 4A legend) was “constantly low”. Moreover, the “Macrophages activity of killing” value in the data set with canine blood monocytes (setting [6]) is 1,1 ± 0,1; in the data set with canine blood monocytes (T1 (2 months)) it was 1,2 ± 0,1; in the data set on canine blood monocytes (T2 (6 months)), 1,1 ± 0,1; in the data set with canine blood monocytes (T3 (12 months)), 1,1 ± 0,1. In addition, the “Macrophages activity of binding” value in the data set with canine blood monocytes (setting [6]) was 31,84 ± 12,9; in the data set with canine blood monocytes (T1 (2 months)), 34,84 ± 14,2; with canine blood monocytes (T2 (6 months)), 35,42 ± 13,68; with canine blood monocytes (T3 (12 months)) it was 32,77 ± 12,78. Further, the “electrophoresis: gamma-globulins levels in sera (trend)” value in data set [1] (Figure 2D legend) is on record as “after a first period of decreasing trend, the gamma globulins trend increase”. Also, the A/G ratio in data set [1] (setting [6]) is 0,48 ± 0,23; in data set [1] (T1 (2 months)) it was 0,55 ± 0,23; in data set [1] (T2 (6 months)), 0,57 ± 0,23; in data set [1] (T3 (12 months)), 0,57 ± 0,22. The Serum albumin in data set [1] (setting [6]) was 30,08 ± 9,63%; in data set [1] (T1 (2 months)), 34,03 ± 9,5%; in data set [1] (T2 (6 months)), 35,22 ± 9,35%; in data set [1] (T3 (12 months)), 35,26 ±9,61%. For the same compound, the “Serum γ-globulin” value in data set [1] (setting [6]) is on record as 30,67 ± 7,91%; in data set [1] (T1 (2 months)) it was 23,15 ± 7,46%; in data set [1] (T2 (6 months)) it was 21,56 ± 5,86%; in data set [1] (T3 (12 months)) it was 22,74 ± 7,93%. For the same compound, in data set [2] (Figure 2B legend, after two months of treatment up to one year), the “PCR results, levels of DNA copies (trend)” value was “progressive increase of parasite DNA in lymphnodes and bone-marrow”. Also, the “RT-PCR on lymph node FNA” value is on record as 613.228 ± 747.653 Parasites/ml in data set [2] (setting [6]), 287.482 ± 434.807 Parasites/ml in data set [2] (T1 (2 months)), 210.103 ± 364.909 Parasites/ml in data set [2] (T2 (6 months)) and 340.367 ± 511.898 Parasites/ml in data set [2] (T3 (12 months)). In data set [3] (Figure 2A legend, after the first six months of the trial), the “trend of antibody (Ab titre)” value is “antibody title increase”. Besides, the Antibody titre came to 908 ± 1240 in data set [3] (setting [6]), 779 ± 1031 in data set [3] (T1 (2 months)), 378 ± 321 in data set [3] (T2 (6 months)) and 493 ± 678 in data set [3] (T3 (12 months)). The “CD3^+/CD21^+ ratio” value is given as 42,62 ± 21,24 in data set [4] (setting [6]), 38,13 ± 20,56 in data set [4] (T1 (2 months)), 39,85 ± 17,58 in data set [4] (T2 (6 months)) and 38,64 ± 19,54 in data set [4] (T3 (12 months)). Besides, the “CD4^+/CD8^+ ratio” value in data set [4] (setting [6]) is given as 1,02 ± 0,48; in data set [4] (T1 (2 months)) it was 1,04 ± 0,46; in data set [4] (T2 (6 months)), 1,02 ± 0,45; in data set [4] (T3 (12 months)) it was 1,31 ± 0,58. Also, the Clinical scores is on record as 4,4 ±2 in data set [5] (setting [6]), 2,5 ± 1,9 in data set [5] (T1 (2 months)), 2,7 ±2 in data set [5] (T2 (6 months)) and 2,8 ± 2,2 in data set [5] (T3 (12 months)).
